Molecules are shown by their SMILES. “And” between values parts separate entries of the source, which are not always exact repeats. Equal values may be shown once. Toxic doses and inconclusive results are not listed.

24 compounds from PubChem BioAssay AID192 (DTP/NCI, 2004) can be followed below.

This assay relates to BDF1 mice, B16 melanoma ip, median survival T/C. The assay can be described thus: NCI In Vivo Anticancer Drug Screen. Data for tumor model B16 Melanoma (intraperitoneal) in B6D2F1 (BDF1) mice. The conditions noted are these: endpoint: median survival time, higher = longer survival. Summed up: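 Compounds were tested in mice carrying transplantable tumors. Survival or tumor size was recorded, and each value is the treated-group measurement (T) divided by that of the vehicle-treated control group (C).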

Where [1] appears, read: dose: 12.5 mg/kg/injection, schedule: Q01DX009 (ip), vehicle: Klucel (hydroxypropylcellulose) (HPC).
Where [2] appears, read: dose: 100.0 mg/kg/injection, schedule: Q04DX003 (ip), vehicle: Klucel (hydroxypropylcellulose) (HPC).
[3] abbreviates: dose: 200.0 mg/kg/injection, schedule: Q04DX003 (ip), vehicle: Klucel (hydroxypropylcellulose) (HPC).
The mark [4] stands for this setting: dose: 400.0 mg/kg/injection, schedule: Q04DX003 (ip), vehicle: Klucel (hydroxypropylcellulose) (HPC).
Where [5] appears, read: dose: 25.0 mg/kg/injection, schedule: Q01DX009 (ip), vehicle: Klucel (hydroxypropylcellulose) (HPC).
[6] abbreviates: dose: 50.0 mg/kg/injection, schedule: Q01DX009 (ip), vehicle: Klucel (hydroxypropylcellulose) (HPC).
Setting [7] is: dose: 25.0 mg/kg/injection, schedule: Q01DX009 (ip), vehicle: saline with Tween-80.
Setting [8] is: dose: 100.0 mg/kg/injection, schedule: Q01DX009 (ip), vehicle: Klucel (hydroxypropylcellulose) (HPC).
Where [9] appears, read: dose: 200.0 mg/kg/injection, schedule: Q01DX009 (ip), vehicle: Klucel (hydroxypropylcellulose) (HPC).
[10] abbreviates: dose: 50.0 mg/kg/injection, schedule: Q01DX009 (ip), vehicle: saline with Tween-80.
[11] abbreviates: dose: 100.0 mg/kg/injection, schedule: Q01DX009 (ip), vehicle: saline with Tween-80.
Where [12] appears, read: dose: 200.0 mg/kg/injection, schedule: Q01DX009 (ip), vehicle: saline with Tween-80.

For `N#Cc1nc2ccccc2nc1C#N`, the T/C was 110 % of control under setting [1]; 97 % of control (dose: 12.5 mg/kg/injection, schedule: Q04DX003 (ip), vehicle: Klucel (hydroxypropylcellulose) (HPC)); 102 % of control (dose: 25.0 mg/kg/injection, schedule: Q04DX003 (ip), vehicle: Klucel (hydroxypropylcellulose) (HPC)); 95 % of control (dose: 50.0 mg/kg/injection, schedule: Q04DX003 (ip), vehicle: Klucel (hydroxypropylcellulose) (HPC)).

Turning to `Cc1ccc(-c2cc(-c3ccccc3)no2)cc1`, the T/C runs as follows: under setting [2], 94 % of control; under setting [3], 100 % of control; under setting [4], 94 % of control.

As to `COc1cc(O)c2c(c1)C(=O)c1cc3c(c(O)c1C2=O)C(O)C(OC)C(C)(O)C3=O` (configuration not stated), the T/C by setting is: under setting [5], 95 % of control; under setting [6], 88 % of control.

Consider `COc1ccc(Nc2ccnc3cc(Cl)ccc23)cc1CN(CCCl)CCCl`, for which the T/C was 118 % of control (dose: 1.25 mg/kg/injection, schedule: Q01DX009 (ip), vehicle: Klucel (hydroxypropylcellulose) (HPC)) and 94 % of control (dose: 2.5 mg/kg/injection, schedule: Q01DX009 (ip), vehicle: Klucel (hydroxypropylcellulose) (HPC)).

Take `Cc1n[nH]c2ccc([N+](=O)[O-])cc2c1=O`: the T/C (dose: 6.25 mg/kg/injection, schedule: Q01DX009 (ip), vehicle: saline with Tween-80) is 97 % of control; the T/C (dose: 12.5 mg/kg/injection, schedule: Q01DX009 (ip), vehicle: saline with Tween-80) is 90 % of control; the T/C under setting [7] is 95 % of control.

In the case of `O=C(O)c1nnc(C(=O)O)nn1`, the T/C is 101 % of control (dose: 12.5 mg/kg/injection, schedule: Q01DX009 (ip), vehicle: water); 96 % of control (dose: 25.0 mg/kg/injection, schedule: Q01DX009 (ip), vehicle: water); 106 % of control (dose: 50.0 mg/kg/injection, schedule: Q01DX009 (ip), vehicle: water); 100 % of control (dose: 100.0 mg/kg/injection, schedule: Q01DX009 (ip), vehicle: water).

Turning to `COc1cccc2c1C(=O)c1c(O)c3c(c(O)c1C2=O)C[C@@](O)(C(=O)CO)C[C@@H]3OC1CC(NC=O)C(O)C(C)O1` (some centres not stated), the T/C was 118 % of control (dose: 1.56 mg/kg/injection, schedule: Q01DX009 (ip), vehicle: other); 185 % of control (dose: 6.25 mg/kg/injection, schedule: Q01DX009 (ip), vehicle: other); 171 % of control and 203 % of control (dose: 12.5 mg/kg/injection, schedule: Q01DX009 (ip), vehicle: other); 194 % of control (dose: 25.0 mg/kg/injection, schedule: Q01DX009 (ip), vehicle: other); 198 % of control and 259 % of control (dose: 50.0 mg/kg/injection, schedule: Q01DX009 (ip), vehicle: other); 259 % of control (dose: 100.0 mg/kg/injection, schedule: Q01DX009 (ip), vehicle: other).

For the compound `COc1cc(C)c(C2NC(=O)c3ccccc3N2)cc1C` (configuration not stated), the T/C is, setting by setting: under setting [5], 103 % of control; under setting [6], 113 % of control; under setting [8], 115 % of control; under setting [9], 121 % of control.

For the compound `O=C(COc1ccc(Cl)cc1)Nc1ccccc1F`, the T/C was 102 % of control under setting [7], 92 % of control under setting [10] and 92 % of control under setting [11].

Regarding `CCOC(=O)NNC(=O)c1ccccc1N(C)C`, the T/C is, setting by setting: under setting [8], 116 % of control; under setting [9], 104 % of control; (dose: 400.0 mg/kg/injection, schedule: Q01DX009 (ip), vehicle: Klucel (hydroxypropylcellulose) (HPC)) 92 % of control.

On to `OCC1OC(n2cnc3c(=S)nc[nH]c32)CC1O` (configuration not stated), for which the T/C is 97 % of control under setting [6] and 92 % of control under setting [8].

`c1ccc(C2=C([P+](c3ccccc3)(c3ccccc3)c3ccccc3)CCO2)cc1`: the T/C is 116 % of control (dose: 6.0 mg/kg/injection, schedule: Q01DX009 (ip), vehicle: saline) and 105 % of control (dose: 6.25 mg/kg/injection, schedule: Q01DX009 (ip), vehicle: saline).

Take `CCCCCCCCCC(O)CCC` (configuration not stated): the T/C under setting [5] was 103 % of control, the T/C under setting [6] was 99 % of control and the T/C under setting [8] was 92 % of control.

With `CC(C)Oc1ccc2c(c1)N(CCC1CCCCN1)c1ccccc1S2` (configuration not stated), the T/C by setting is: (dose: 1.56 mg/kg/injection, schedule: Q01DX009 (ip), vehicle: Klucel (hydroxypropylcellulose) (HPC)) 97 % of control; (dose: 3.12 mg/kg/injection, schedule: Q01DX009 (ip), vehicle: Klucel (hydroxypropylcellulose) (HPC)) 98 % of control; (dose: 6.25 mg/kg/injection, schedule: Q01DX009 (ip), vehicle: Klucel (hydroxypropylcellulose) (HPC)) 112 % of control; under setting [1], 91 % of control; under setting [5], 86 % of control.

In the case of `CC(C)n1c2c([n+](C)c1/C=C/c1ccccc1)C(=O)c1ccccc1C2=O`, the T/C is 94 % of control (dose: 0.13 mg/kg/injection, schedule: Q01DX009 (ip), vehicle: saline); 96 % of control (dose: 0.25 mg/kg/injection, schedule: Q01DX009 (ip), vehicle: saline); 100 % of control (dose: 0.5 mg/kg/injection, schedule: Q01DX009 (ip), vehicle: saline); 94 % of control (dose: 1.0 mg/kg/injection, schedule: Q01DX009 (ip), vehicle: saline with Tween-80); 102 % of control (dose: 1.0 mg/kg/injection, schedule: Q01DX009 (ip), vehicle: saline); 90 % of control (dose: 2.0 mg/kg/injection, schedule: Q01DX009 (ip), vehicle: saline). The T/C (dose: 4.0 mg/kg/injection, schedule: Q01DX009 (ip), vehicle: saline) was 97 % of control.

As for `Cc1ccc(CNc2ccc(C)cc2)cc1`, the T/C runs as follows: under setting [8], 100 % of control; under setting [9], 100 % of control.

With `Cc1[nH]ccc2c(C)c3nc4ccccc4c3cc12`, under setting [5], the T/C is 161 % of control.

For the compound `COc1cc2[nH]c(C)c(CCN3CCN(c4ccccc4)CC3)c2cc1OC`, the T/C by setting is: (dose: 0.04 mg/kg/injection, schedule: Q01DX009 (ip), vehicle: Klucel (hydroxypropylcellulose) (HPC)) 107 % of control; (dose: 0.09 mg/kg/injection, schedule: Q01DX009 (ip), vehicle: Klucel (hydroxypropylcellulose) (HPC)) 92 % of control; (dose: 0.19 mg/kg/injection, schedule: Q01DX009 (ip), vehicle: Klucel (hydroxypropylcellulose) (HPC)) 93 % of control; (dose: 0.39 mg/kg/injection, schedule: Q01DX009 (ip), vehicle: Klucel (hydroxypropylcellulose) (HPC)) 106 % of control; (dose: 0.78 mg/kg/injection, schedule: Q01DX009 (ip), vehicle: Klucel (hydroxypropylcellulose) (HPC)) 102 % of control.

Turning to `C=C1C(=O)O[C@@H]2[C@H]3O[C@]3(C)CCC=C(C)CC[C@@H]12`, the T/C reads like this: under setting [1], 92 % of control; under setting [5], 87 % of control; under setting [6], 92 % of control.

In the case of `CCOC(=O)/C(Cc1cc[n+]([O-])c2ccccc12)=N/O`, the T/C under setting [2] was 88 % of control, the T/C under setting [3] was 97 % of control and the T/C under setting [4] was 88 % of control.

Turning to `Cc1cc(C)c(OC2=C(c3c(C)cc(C)cc3C)C(=O)c3ccccc32)c(C)c1`, the T/C runs as follows: under setting [10], 104 % of control; under setting [11], 100 % of control; under setting [12], 98 % of control; (dose: 400.0 mg/kg/injection, schedule: Q01DX009 (ip), vehicle: saline with Tween-80) 91 % of control.

Regarding `Cc1ccc(C(=O)/C(=C/c2ccccc2)c2ccccc2)cc1`, the T/C is 113 % of control under setting [2], 113 % of control under setting [3] and 104 % of control under setting [4].

With `Cc1ccc(C(=O)/C=C/c2ccccc2O)cc1`, the T/C is 103 % of control (dose: 37.5 mg/kg/injection, schedule: Q01DX009 (ip), vehicle: Klucel (hydroxypropylcellulose) (HPC)); 90 % of control (dose: 75.0 mg/kg/injection, schedule: Q01DX009 (ip), vehicle: Klucel (hydroxypropylcellulose) (HPC)); 98 % of control (dose: 150.0 mg/kg/injection, schedule: Q01DX009 (ip), vehicle: Klucel (hydroxypropylcellulose) (HPC)); 88 % of control (dose: 300.0 mg/kg/injection, schedule: Q01DX009 (ip), vehicle: Klucel (hydroxypropylcellulose) (HPC)).

With `CC(=O)N(C)O`, the T/C by setting is: under setting [7], 98 % of control; under setting [10], 107 % of control; under setting [11], 101 % of control; under setting [12], 103 % of control.
